Assay results: patent US20210000830A1, “CANCER TREATMENT METHOD USING Trk INHIBITOR AND KINASE INHIBITOR IN COMBINATION” (ONO PHARMACEUTICAL CO., LTD., priority 2017, published 2021)

Assays:
[1] = test system: KM12-AR (compound A resistant KM12 cell lines); assay: Growth inhibition test in compound A resistant KM12 cell lines (KM12-AR); assay type: cell-based, human; conditions: KM12-AR cells; single treatment
Method: Pharmacological Experiment Example 5: Growth Inhibition Test in Compound a Resistant KM12 Cell Lines
Using KM12 as TPM3-NTRK1-positive human colon cancer cell lines, a strain resistant to the compound A was established. A DMEM (Life technologies, product number: 11965) containing a 10 vol % FBS and 1 vol % penicillin-streptomycin liquid was prepared as a culture medium. The thawed KM12 was suspended in the culture medium. At room temperature, 180 g was centrifuged for 3 minutes, the supernatant was removed by suction, and the cell sediment was then re-suspended in the culture medium, and a total amount of 50 mL was inoculated in a 225 cm^2 flask (Asahi Glass Co., Ltd.). […]
Then, every two or three days, the culture medium was replaced or subcultured. […] The cell sediment was suspended in the DMEM culture medium, a part of the cell suspension was then collected, and the number of viable cells was counted. […]
Using KM12-AR, an effect when the compound A and trametinib, selumetinib, palbociclib, gefitinib, erlotinib, afatinib, lapatinib, neratinib or canertinib were combined was evaluated. […]
On the day when the compound was treated, 10 mM of each compound (DMSO solution) was serially diluted with DMSO to prepare a diluted solution. […] After the compound was added, the growth inhibition rate was calculated in the same method as in Pharmacological Experiment Example 3.

[2] = test system: TPM3-NTRK1-positive human colon cancer cell lines KM12; assay: Growth inhibition test in TPM3-NTRK1 positive KM12 cell lines (CellTiter-Glo, combination index); assay type: cell-based; conditions: named kinase inhibitor used in combination with compound A; KM12 cells, 72 hours; CI<1 synergistic
Method: Pharmacological Experiment Example 3: Growth Inhibition Test in TPM3-NTRK1 Positive KM12 Cell Lines
Using KM12 as TPM3-NTRK1-positive human colon cancer cell lines, an effect when 1-{2-[4-(2-amino-5-chloro-3-pyridinyl)phenoxy]-5-pyrimidinyl}-3-[2-(methylsulfonyl)-5-(trifluoromethyl)phenyl]urea (hereinafter sometimes referred to as a compound A) and trametinib, selumetinib, palbociclib, afatinib or erlotinib were combined was evaluated. Cells were subcultured using a DMEM containing a 10 vol % inactivated fetal bovine serum (FBS) and 1 vol % penicillin-streptomycin liquid as a culture medium before they underwent the experiment.
One day before the compound was treated, cells were floated using 0.25% Trypsin-EDTA, and the cells were collected into a centrifuge tube from a culture flask. At room temperature, 180 g of the cells were centrifuged for 3 minutes, and the cell sediment was then suspended in a DMEM culture medium. A part of the cell suspension was collected, the number of cells was counted, and the cells were then suspended in the DMEM culture medium at a cell density of 3.75×10^4 cells/mL to prepare a cell suspension. The cell suspension was inoculated at 80 μL/well in a 96-well tissue culture plate (Asahi Glass Co., Ltd.), and left for 24 hours under 37° C., 5% CO2, and 95% air conditions.
On the day when the compound was treated, 10 mM of each compound (DMSO solution) was serially diluted with DMSO to prepare a diluted solution. The diluted solution of each compound and DMSO were diluted 100-fold in a culture medium to prepare a 10-fold concentration of the treatment solution of each compound and the medium solution. The compound A solution or medium solution prepared above was added at 10 μL/well to wells of a 96-well tissue culture plate in which cells were stationary-cultured for 24 hours. Then, in the same manner, the trametinib, selumetinib, palbociclib, afatinib or erlotinib solution or the medium solution was added at 10 μL/well to wells of the 96-well tissue culture plate. […]
After the stationary culture was completed, a luminescent signal (relative luminescent unit, RLU) of each well was measured by a microplate reader using a CellTiter-Glo Luminescent Cell Viability Assay kit (Promega, G7571). An average value of RLUs of 3 wells of a medium group (a group treated with a medium solution having a compound concentration of zero (0)) was calculated, and a growth inhibition rate in each well was calculated by the following mathematical formula. […]
In order to analyze the combined effect, using a fluorescence intensity, the effective dose (ED)50, ED75, ED90 and ED95 were calculated, and a combination index (CI) described in Advances in enzyme regulation, vol. 22, 1984, pp. 27-55 was calculated for analysis. […]

[3] = test system: ETV6-NTRK3 positive human leukemia cell lines IMS-M2; assay: Growth inhibition experiment in ETV6-NTRK3 positive IMS-M2 cell lines (combination index); assay type: cell-based; conditions: named kinase inhibitor used in combination with compound A; IMS-M2 cells, 72 hours; CI<1 synergistic
Method: Cells were subcultured using an RPMI culture medium containing a 10 vol % FBS and 1 vol % penicillin-streptomycin liquid before they underwent the experiment.
On the day when the compound was treated, cells were collected from a culture flask into a centrifuge tube. At room temperature, 300 g of cells were centrifuged for 3 minutes, and the cell sediment was then suspended in the RPMI culture medium.
The diluted solution of each compound and DMSO were diluted 100-fold in a culture medium to prepare a 10-fold concentration of the treatment solution of each compound and the medium solution.

Structure (SMILES)	growth inhibitory effect, treated alone [1]	CI (median value) [2]	CI (median value) [3]
CS(=O)(=O)c1ccc(C(F)(F)F)cc1NC(=O)Nc1cnc(Oc2ccc(-c3cc(Cl)cnc3N)cc2)nc1 [1-{2-[4-(2-amino-5-chloro-3-pyridinyl)phenoxy]-5-pyrimidinyl}-3-[2-(methylsulfonyl)-5-(trifluoromethyl)phenyl]urea]	no growth inhibitory effect was observed	–	–
CC(=O)Nc1cccc(-n2c(=O)n(C3CC3)c(=O)c3c(Nc4ccc(I)cc4F)n(C)c(=O)c(C)c32)c1 [Trametinib, trametinib]	–	0.705	0.652
CN(C)C/C=C/C(=O)Nc1cc2c(Nc3ccc(F)c(Cl)c3)ncnc2cc1O[C@H]1CCOC1 [Afatinib, afatinib]	–	0.861	0.869
CC(=O)c1c(C)c2cnc(Nc3ccc(N4CCNCC4)cn3)nc2n(C2CCCC2)c1=O [Palbociclib, palbociclib]	–	0.660	0.719
Cn1cnc2c(F)c(Nc3ccc(Br)cc3Cl)c(C(=O)NOCCO)cc21 [Selumetinib, selumetinib]	–	0.674	0.549
